Several values for one entry are separate records, joined by “and”; a condition that tells them apart may be missing. Equal values may be shown once. Entries after “also recorded” stand apart in the source; their conditions may differ.
Tests used:
[1] = molecular target: T1, membrane-bound human MAO-A (Homo sapiens, UniProt P21397); experiment: MAO-A inhibition, H2O2/horseradish peroxidase coupled fluorescence assay with tyramine; type: biochemical; conditions: for inhibition at 10 µM: read-out: % inhibition at 10 μM hMAO-A, 10 μM compound, tyramine 0.8 mM (2 × KM), average of two independent experiments; for IC50 (μM) hMAO-A / IC50: tyramine at 2 × KM, seven concentrations 0.01–300 µM, ± s.d., two independent experiments; for IC50: read-out: IC50 (μM) hMAO-A; for selectivity MAO-A versus MAO-B: from IC50 values on MAO-A and MAO-B; for inhibition of MAO-A compared with MAO-B in the screen: screen at 10 µM
T1 sequence (P21397 1-527): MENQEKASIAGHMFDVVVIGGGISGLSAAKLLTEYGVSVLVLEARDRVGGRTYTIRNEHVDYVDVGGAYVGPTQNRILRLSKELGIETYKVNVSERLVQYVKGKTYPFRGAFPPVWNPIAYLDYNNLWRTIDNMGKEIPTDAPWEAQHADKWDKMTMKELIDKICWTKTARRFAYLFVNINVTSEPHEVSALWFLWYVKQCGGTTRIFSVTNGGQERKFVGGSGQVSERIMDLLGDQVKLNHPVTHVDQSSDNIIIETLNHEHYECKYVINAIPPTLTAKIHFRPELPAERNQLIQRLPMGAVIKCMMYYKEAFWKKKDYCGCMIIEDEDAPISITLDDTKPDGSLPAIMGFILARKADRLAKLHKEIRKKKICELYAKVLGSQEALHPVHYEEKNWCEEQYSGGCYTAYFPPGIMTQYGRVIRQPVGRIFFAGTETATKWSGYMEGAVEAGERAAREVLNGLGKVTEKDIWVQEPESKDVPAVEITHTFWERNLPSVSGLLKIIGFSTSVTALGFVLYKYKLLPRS
Protocol: (§1) Incomplete inhibition of activity could arise either from indirect effects on these enzymes or from the compounds acting as substrates at the highest concentrations.
(§2) The activity of MAO was determined using the coupled assay method of [41, 42] in which the product, H2O2, acts with horseradish peroxidase to convert 10-acetyl-3,7-dihydroxyphenoxazine to the fluorescent resorufin. […] The data were analysed using the equation for a three-parameter curve in Graphpad PRISM v. 4, and the % inhibition calculated from the top and bottom of the resulting curve.

[2] = molecular target: T2, membrane-bound human MAO-B (Homo sapiens, UniProt P27338); experiment: MAO-B inhibition, H2O2/horseradish peroxidase coupled fluorescence assay with tyramine; type: biochemical; conditions: for maximum inhibition (%) hMAO-B: from dose–response curve, in parentheses after IC50, given if less than 95%; for inhibition at 10 µM: read-out: % inhibition at 10 μM hMAO-B, 10 μM compound, tyramine 0.32 mM (2 × KM), average of two independent experiments; for IC50 / IC50 (μM) hMAO-B: tyramine at 2 × KM, seven concentrations 0.01–300 µM, ± s.d., two independent experiments; for IC50: read-out: IC50 (μM) hMAO-B
T2 sequence (P27338 1-520): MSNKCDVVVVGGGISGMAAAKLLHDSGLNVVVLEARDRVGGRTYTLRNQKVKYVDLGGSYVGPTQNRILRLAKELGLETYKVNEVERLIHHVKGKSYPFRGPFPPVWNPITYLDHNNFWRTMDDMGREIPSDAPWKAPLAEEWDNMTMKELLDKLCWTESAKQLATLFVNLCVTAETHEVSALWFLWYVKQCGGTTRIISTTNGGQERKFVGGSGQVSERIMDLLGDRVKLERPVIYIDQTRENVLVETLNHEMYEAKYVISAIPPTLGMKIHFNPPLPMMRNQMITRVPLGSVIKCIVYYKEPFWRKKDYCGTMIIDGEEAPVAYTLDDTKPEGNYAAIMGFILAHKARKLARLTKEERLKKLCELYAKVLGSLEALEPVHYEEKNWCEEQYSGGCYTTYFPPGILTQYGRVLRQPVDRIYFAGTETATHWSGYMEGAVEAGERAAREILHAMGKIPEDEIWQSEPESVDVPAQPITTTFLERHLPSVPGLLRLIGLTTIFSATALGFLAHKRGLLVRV
Protocol: as §1, §2

Structure (SMILES)	inhibition at 10 µM [1] [%]	maximum inhibition (%) hMAO-B [2]	inhibition at 10 µM [2] [%]	IC50 [2]	melting point [°C]	further results
COC(=O)CN1C(=O)c2ccccc2NC1c1ccccc1 (centres unmarked) [3a, Methyl-2-(4-oxo-2-phenyl-1,2-dihydroquinazolin-3(4H)-yl)acetate]	-6	40%	38	5.28 ± 1.44 µM		IC50 (μM) hMAO-A [1]: none
COC(=O)CN1C(=O)c2cc(Cl)ccc2NC1c1ccccc1 (centres unmarked) [3b, Methyl-2-(6-chloro-4-oxo-2-phenyl-1,2-dihydroquinazolin-3(4H)-yl)acetate]	10		34		162 to 163	
COC(=O)CN1C(=O)c2cc(Cl)ccc2NC1c1ccc(OC)cc1 (centres unmarked) [3c, Methyl 2-(6-chloro-2-(4-methoxyphenyl)-4-oxo–1,2-dihydroquinazolin-3(4H)-yl)acetate]	-3		10		148 to 150	
COC(=O)CN1C(=O)c2cc(Cl)ccc2NC1c1ccccc1OC (centres unmarked) [3d, Methyl 2-(6-chloro-2-(2-methoxyphenyl)-4-oxo–1,2-dihydroquinazolin-3(4H)-yl)acetate]	0		27		152 to 154	
NNC(=O)CN1C(=O)c2cc(Cl)ccc2NC1c1ccccc1 (centres unmarked) [4b, 2-(6-Chloro-4-oxo-2-phenyl-1,2-dihydroquinazolin-3(4H)-yl)acetohydrazide]	6		31		184 to 185	
COc1ccc(C2Nc3ccc(Cl)cc3C(=O)N2CC(=O)NN)cc1 (centres unmarked) [4c, 2-(6-Chloro-2-(4-methoxyphenyl)-4-oxo-1,2-dihydroquiazolin-3(4H)-yl)acetohydrazide]	0		27		159 to 160	
COc1ccccc1C1Nc2ccc(Cl)cc2C(=O)N1CC(=O)NN (centres unmarked) [4d, 2-(6-Chloro-2-(2-methoxyphenyl)-4-oxo-1,2-dihydroquinazolin-3(4H)-yl)acetohydrazide]	0		28		149 to 151	
O=C(CN1C(=O)c2ccccc2NC1c1ccccc1)NN=Cc1ccccc1 (centres unmarked) [5a, N'-Benzylidene-2-(4-oxo-2-phenyl-1,2-dihydroquinazolin-3(4H)-yl)acetohydrazide]	19	full inhibition	55	< 10 µM and 10 µM	223 to 225	IC50 (μM) hMAO-A [1]: micromolar potency; IC50 [1]: 4.4 µM and 6 µM and 6.2 µM; IC50 (μM) hMAO-B [2]: micromolar affinity
O=C(CN1C(=O)c2ccccc2NC1c1ccccc1)NN=Cc1ccc(O)cc1 (centres unmarked) [5b, N'-(4-Hydroxybenzylidene)-2-(4-oxo-2-phenyl-1,2-dihydroquinazolin-3(4H)-yl)acetohydrazide]	6		36	83 µM	230 to 232	IC50 (μM) hMAO-A [1]: none
COc1ccc(C=NNC(=O)CN2C(=O)c3ccccc3NC2c2ccccc2)cc1 (centres unmarked) [5c, N'-(4-Methoxybenzylidene)-2-(4-oxo-2-phenyl-1,2-dihydroquinazolin-3(4H)-yl)acetohydrazide]					210 to 212	
COc1cc(C=NNC(=O)CN2C(=O)c3ccccc3NC2c2ccccc2)ccc1O (centres unmarked) [5d, N'-(4-Hydroxy-3-methoxybenzylidene)-2-(4-oxo-2-phenyl-1,2-dihydroquinazolin-3(4H)yl)acetohydrazide]	71	full inhibition	70	0.75 ± 0.18 µM	252 to 255	selectivity MAO-A versus MAO-B [1]: threefold selective for MAO-A; inhibition of MAO-A compared with MAO-B in the screen [1]: equal inhibition of MAO-A and MAO-B; also recorded: equally inhibited; IC50 (μM) hMAO-A [1]: micromolar potency; IC50 [1]: 0.27 ± 0.06 µM; IC50 (μM) hMAO-B [2]: micromolar affinity
O=C(CN1C(=O)c2cc(Cl)ccc2NC1c1ccccc1)NN=Cc1ccccc1 (centres unmarked) [5e, N'-Benzylidene-2-(6-chloro-4-oxo-2-phenyl-1,4-dihydroquinazolin-3(2H)-yl)acetohydrazide]	10		19		266 to 270	
COc1ccc(C=NNC(=O)CN2C(=O)c3cc(Cl)ccc3NC2c2ccccc2)cc1 (centres unmarked) [5f, 2-(6-Chloro-4-oxo-2-phenyl-1,4-dihydroquinazolin-3(2H)-yl)-N'-(4-methoxybenzylidene)-acetohydrazide]					138 to 140	
O=C(CN1C(=O)c2cc(Cl)ccc2NC1c1ccccc1)NN=Cc1ccc(O)cc1 (centres unmarked) [5g, 2-(6-Chloro-4-oxo-2-phenyl-1,4-dihydroquinazolin-3(2H)-yl)-N'-(4-hydroxybenzylidene)acetohydrazide]	22	full inhibition	36	11 ± 4 µM	236 to 240	selectivity MAO-A versus MAO-B [1]: A-selective; IC50 (μM) hMAO-A [1]: micromolar potency; IC50 [1]: 4.34 ± 1.31 µM; IC50 (μM) hMAO-B [2]: micromolar affinity
Cc1nc2ccccc2c(=O)n1/N=C/c1ccccc1 [14a]	5	77%	40	< 10 µM and 6.84 µM		IC50 (μM) hMAO-A [1]: does not inhibit MAO-A
Cc1nc2ccccc2c(=O)n1/N=C/c1ccc(O)cc1 [14b]	14	77%	52	4.64 ± 0.41 µM		selectivity MAO-A versus MAO-B [1]: B-selective; IC50 (μM) hMAO-A [1]: no inhibition; mechanism of inhibition of MAO-B ([2]; 30 min preincubation, dilution ×100, increasing substrate concentration): competitive inhibition
COc1ccc(/C=N/n2c(C)nc3ccccc3c2=O)cc1 [14c]	8	73%	44	6.75 ± 1.06 µM		
COc1cc(/C=N/n2c(C)nc3ccccc3c2=O)ccc1O [14d]	11	77%	44	5.93 ± 1.02 µM		
NNC(=O)Cn1c(-c2ccccc2)nc2ccccc2c1=O [compound 7, 2-(4-oxo-2-phenylquinazolin-3(4H)-yl)acetohydrazide]					215 to 218	
COC(=O)Cn1c(-c2ccccc2)nc2ccccc2c1=O [compound 8, Methyl 2-(4-oxo-2-phenylquinazolin-3(4H)-yl)acetate]					115 to 116	
Cc1nc2ccccc2c(=O)n1CC(=O)NN [compound 11, 2-(2-Methyl-4-oxoquinazolin-3(4H)-yl)acetohydrazide]	15		19	> 100 µM		inhibition of MAO-A compared with MAO-B in the screen [1]: equal inhibition of MAO-A and MAO-B; also recorded: equally inhibited
Cc1nc2ccccc2c(=O)n1N [compound 13]	-8		23			
COc1ccc2c(c1)[nH]c1c(C)nccc12 [harmine, reference compound]	100		17	11.6 ± 3.1 µM		
C[C@H](NCc1ccc(OCc2cccc(F)c2)cc1)C(N)=O [safinamide, reference compound]	11					

— article PMC7211837, “Design, synthesis, molecular modelling and in vitro screening of monoamine oxidase inhibitory activities of novel quinazolyl hydrazine derivatives” (Royal Society Open Science, 2020)
